Test results from publication PMC9579956 (RSC Medicinal Chemistry, 2022).

Each molecule was assayed against Mycobacterium thermoresistible (Mtr) LpqY (Mycolicibacterium thermoresistibile, UniProt G7CES0). Details: single dose MST screen against LpqY.
Type: binding

Mycobacterium thermoresistible (Mtr) LpqY, sequence (G7CES0 29-471): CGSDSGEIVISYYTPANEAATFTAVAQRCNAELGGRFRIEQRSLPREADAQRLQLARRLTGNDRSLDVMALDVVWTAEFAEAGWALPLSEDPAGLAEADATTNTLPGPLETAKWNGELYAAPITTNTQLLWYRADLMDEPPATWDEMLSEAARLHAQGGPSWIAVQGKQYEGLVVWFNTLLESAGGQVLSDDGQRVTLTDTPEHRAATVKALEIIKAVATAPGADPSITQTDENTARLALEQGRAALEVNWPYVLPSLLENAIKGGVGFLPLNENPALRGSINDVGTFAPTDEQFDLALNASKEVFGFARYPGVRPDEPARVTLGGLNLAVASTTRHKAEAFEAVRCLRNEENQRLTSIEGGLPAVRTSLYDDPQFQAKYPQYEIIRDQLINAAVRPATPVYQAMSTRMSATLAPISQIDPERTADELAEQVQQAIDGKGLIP

| SMILES | Pathogen Box screen signal/noise ratio |
| --- | --- |
| CC(=O)Nc1ccc(-c2noc(CC3CCCN(Cc4cccc(F)c4C)C3)n2)cc1 (stereo not drawn) [MMV689061] | 0.9 |
| CC(C)(C)n1nc(Cc2ccc(F)c(Cl)c2)c2c(N)ncnc21 [MMV688852] | 0.7 |
| CCS(=O)(=O)N(Cc1ccco1)Cc1cc2ccc(C)cc2nc1O [MMV676398] | -0.167 |
| C[C@H](C(N)=O)N1CCCC[C@H]1c1ccc(OCc2cccc(F)c2)cc1 [MMV676269] | 0.212 |
| Cc1nc(-c2ccccn2)nc(N(C)CCc2ccccc2)c1Cl [MMV658988] | 2.9 |
| COc1ccc(Oc2ccc([C@@H](C)N(C)c3ncc4c(N)nc(N)nc4n3)cc2)cc1 [MMV690102] | 2.1 |
| Cc1ccc(NC(=O)c2cc(S(=O)(=O)NC(C)(C)C)ccc2C)nc1 [MMV020289] | 1.4 |
| Cc1ccc2cc(C3NC(=O)c4ccccc4N3)c(Cl)nc2c1 (stereo not drawn) [MMV019807] | 0.7 |
| COc1ccc(-c2cc(NC(=O)c3ccc(F)cc3Cl)ccc2OC)cc1 [MMV676526] | 0.556 |
| Cc1cc(C)cc(COc2ccc3c(C)c(CCC(=O)O)c(=O)oc3c2C)c1 [MMV676476] | 2.7 |
| c1cncc(NCc2ccc(-c3cc4ccncc4cc3OC3CCNCC3)s2)c1 [MMV023969] | 1.3 |
| O=C1O[C@@H](CO)CN1c1cc(F)c(C2=CCN(Cc3ccccc3)CC2)c(F)c1 [MMV687729] | 1.5 |
| Nc1ncnc2[nH]nc(Cc3cccc4ccccc34)c12 [MMV688469] | 0.357 |
| O=C(CCC1CCCCC1)Nc1cccc(-c2nnc(-c3ccco3)o2)c1 [MMV676589] | 0.6 |
| CNC(=O)CNc1nc(-c2ccccn2)nc2scc(-c3ccccc3)c12 [MMV1029203] | 0.463 |
| CC(C)(C)OC(=O)N1CCN(c2cc(-c3ccc(Oc4ccccc4)cc3)n[nH]2)CC1 [MMV676057] | 1.2 |
| CC(C)(C)CN1C(=O)C(c2ccccc2)(c2ccccc2)N=C1N [MMV026550] | 0.455 |
| COc1ccc2nc(C)cc(OCC(=O)NCc3ccccc3)c2c1 [MMV687189] | 0.0536 |
| Cc1nc(-c2ccccn2)nc(NCCc2ccc(S(C)(=O)=O)cc2)c1Cl [MMV658993] | 0.75 |
| O=C(c1[nH]nc2c1CCCC2)N1CCN(Cc2ccc3c(c2)OCO3)CC1 [MMV676389] | 1.7 |
| Cn1ccnc1CNCCS(=O)(=O)c1cccc(Nc2ccc(-c3cccc(F)c3)cn2)c1 [MMV688466] | 0.0 |

| SMILES | Pathogen Box screen signal/noise ratio |
| --- | --- |
| COc1cccc(-c2cc3c(Nc4cccnc4)nccc3[nH]2)c1 [MMV392832] | 2.1 |
| COc1ccc(-c2nn(C(C)C)c3ncnc(N)c23)cc1OC [MMV675993] | 0.75 |
| COc1ccccc1CNC(=O)c1cc(C2CC2)nc2c1cnn2C(C)C [MMV020517] | 2.3 |
| c1ccc(Oc2ccc(-c3cc(CN4CCOCC4)[nH]n3)cc2)cc1 [MMV676161] | 1.1 |
| Cc1cc(C)c2cc(C(=O)NC3CCCCCCC3)[nH]c2c1 [MMV687146] | 1.1 |
| N#CCN(CCCCN1CCN(c2ccc(F)cc2)CC1)C(=O)OCc1ccccc1 [MMV675997] | 0.322 |
| Nc1ncnc2c1ncn2[C@@H]1O[C@H](COS(=O)(=O)NC(=O)c2ccccc2O)[C@@H](O)[C@H]1O [MMV687700] | 1.1 |
| COc1ccc(-c2onc(C(F)(F)F)c2-c2ccc(Cl)cc2)c(O)c1 [MMV688766] | 0.9 |
| O=C(NCCN1CCCC1)c1cc(NCCN2CCOCC2)nc2ccc(Cl)cc12 [MMV634140] | 0.9 |
| Cc1ccc(Oc2ccc(NC(=O)CNc3ccccc3N3CCCC3=O)cc2)cc1 [MMV020512] | 3.4 |
| NC(=O)c1cc(-c2ccsc2)ccc1OCCOc1ccccc1 [MMV687138] | 1.8 |
| OCc1ccc(-c2cncc(Nc3cccc(Cl)c3)c2)cc1 [MMV026468] | 0.563 |
| CN1CCC(NCc2cccc(-c3ccc(S(=O)(=O)NCc4ccccc4)cc3)c2)CC1 [MMV022029] | -0.0167 |
| COc1ccc(C2(C(=O)Nc3ccc(Br)cc3)CCCC2)cc1 [MMV200748] | 1.4 |
| Cc1nn(Cc2ccccc2)c(Cl)c1C(=O)NC1CCCCCC1 [MMV063404] | 2.2 |
| N#Cc1nc(-c2ccccc2)oc1S(=O)(=O)c1ccc(Cl)cc1 [MMV676412] | 0.6 |
| CCOc1ccc(-c2nc(NC(=O)CS(=O)(=O)c3ccccc3)sc2C)cc1 [MMV007638] | 0.254 |
| O=C(NCc1ccoc1)N1CCN(Cc2ccc3c(c2)OCO3)CC1 [MMV688553] | 0.8 |
| CC1COC(Cn2cncn2)(c2ccc(Oc3ccc(Cl)cc3)cc2Cl)O1 (stereo not drawn) [MMV688943] | 0.75 |
| c1ccc(-c2nc(NC3CCCCC3)cc(C3CC3)n2)nc1 [MMV021013] | 0.0694 |
| Cc1cc(NC(=O)c2ccc(Oc3ccc(Cl)cc3O)o2)no1 [MMV688955] | 0.4 |

| SMILES | Pathogen Box screen signal/noise ratio |
| --- | --- |
| Cc1cc2nc(NC(=O)C(C)(C)C)nc(Cl)c2n1Cc1ccc(Cl)cc1 [MMV688704] | 1.2 |
| Cc1cc(C(=O)Nc2ccc(-c3ccccc3)cc2)no1 [MMV020152] | 0.742 |
| COC(=O)c1c(NC(=O)c2c(F)c(F)c(F)c(F)c2F)sc2c1CCCCC2 [MMV461553] | 2.6 |
| Cc1nc2ccccn2c1C(=O)NCc1ccc(Cl)cc1 [MMV012074] | 1.0 |
| O=C(NCc1nnc2n1CCCCC2)c1ccc(-c2ccc(F)cc2)o1 [MMV688796] | 0.278 |
| c1ccc(Oc2ccc(-c3cc(N4CCOCC4)[nH]n3)cc2)cc1 [MMV045105] | 1.1 |
| O=C(NC1CC1)c1ccc(N2CCC(Cc3ccccc3)CC2)nc1 [MMV024397] | 0.8 |
| Cc1ccc2oc(-c3cc(NC(=O)Cc4ccccc4)ccc3Cl)nc2c1 [MMV676509] | 3.4 |
| CCc1cc(=O)n(C)c(SC(C)C(=O)Nc2ccc(F)cc2)n1 (stereo not drawn) [MMV688980] | 1.3 |
| Cc1cc(C2=NOC(c3cc(Cl)c(F)c(Cl)c3)(C(F)(F)F)C2)ccc1C(=O)NCc1ccc2c(c1)C(C)(C)OB2O (stereo not drawn) [MMV687776] | 1.6 |
| CC(=O)N(CCN(C(=O)c1ccc(F)cc1)c1ccccc1)c1ccccc1 [MMV676064] | 0.35 |
| Cc1cc(NCCc2ccccc2)nc(NC(=N)Nc2ccc(Cl)cc2)n1 [MMV021660] | 1.6 |
| CN1CCN(c2nccc3[nH]c(-c4cccc(F)c4)cc23)CC1 [MMV393144] | 1.4 |
| N=C(N)c1ccc(-c2cc(-c3ccccc3)on2)cc1 [MMV688514] | 1.1 |
| Cc1cc(O)nc(-n2nc(C)cc2C)n1 [MMV393995] | 0.65 |
| COc1cccc(NC(=O)c2c(NC(=O)c3cccnc3)sc3c2CCC3)c1 [MMV228911] | 2.2 |
| O=C(Nc1nnc(-c2ccc(Cl)s2)o1)c1ccc(Cl)s1 [MMV676501] | 0.556 |
| Nc1ccc(C(=O)Nc2ccc(-c3nc4ccccc4o3)cc2)cc1 [MMV007920] | 0.9 |
| O=C(Nc1ccc2c(c1)B(O)OC2)c1ccccc1C(F)(F)F [MMV652003] | 0.444 |
| Cc1cc(C)n(-c2ccc(NC(=O)C3CCN(Cc4cnc(C)s4)CC3)cc2)n1 [MMV007625] | 1.4 |
| CN1CCN(c2cc(-c3ccc(F)cc3)nc(-c3ccncc3)n2)CC1 [MMV688888] | 2.6 |

| SMILES | Pathogen Box screen signal/noise ratio |
| --- | --- |
| COC(=O)c1c(NC(=O)c2cc3ccccc3oc2=O)sc2c1CCN(Cc1ccccc1)C2 [MMV676480] | 1.3 |
| COc1ccc2nccc(NC(=O)C3CCN(CCc4ccc(Cl)cc4)CC3)c2n1 [MMV688844] | 0.7 |
| Cc1cc(C)nc(-n2nc(C)cc2Nc2ccccc2)n1 [MMV062221] | 0.8 |
| Cc1cc(Cl)ccc1NC(=O)CCc1ccc(S(=O)(=O)NCC(C)C)cc1 [MMV161996] | 1.2 |
| CNCCC(Oc1ccc(C(F)(F)F)cc1)c1ccccc1 (stereo not drawn) [MMV001561] | 0.9 |
| O=C(C1CCN(c2cc(-n3cccc3)ncn2)CC1)N1CCc2ccccc2C1 [MMV687172] | 0.431 |
| CC(C)(C)c1ccc(N[C@@H]2CCCC[C@H]2NC(=O)c2ccco2)cc1 [MMV675969] | 0.3 |
| COC(=O)c1cccc2oc(-c3cccc(OC)c3NC(=O)c3cc(-c4ccccc4)on3)nc12 [MMV676186] | 0.1 |
| CC(C)(C)OC(=O)N1CCC(Cn2nc(-c3cnc4ccccc4c3)c3c(N)ncnc32)CC1 [MMV688364] | 0.6 |
| O=C(Nc1ccc(N2CCNCC2)cc1)c1ccn2ncc(-c3cccc(Cl)c3)c2n1 [MMV022478] | 2.0 |
| c1ccc(-c2[nH]c3ccccc3c2C(c2ccccn2)N2CCCC2)cc1 (stereo not drawn) [MMV688762] | 0.9 |
| Cc1cccnc1NC(=O)c1cccc(OCc2c(C)noc2C)c1 [MMV688793] | 0.4 |
| Cn1ncc2c(N3CCOCC3)nc(NCCc3c[nH]c4ccccc34)nc21 [MMV676382] | 0.7 |
| NCC(c1cccs1)S(=O)(=O)c1ccccc1 (stereo not drawn) [MMV688557] | 0.569 |
| O=C(Nc1cccc(-c2ccc(NCCCN3CCCC3)nc2)c1)c1ccccc1 [MMV023953] | 2.4 |
| O=C(Nc1nnc(-c2ccc(Cl)cc2)o1)c1cccc(C(F)(F)F)c1 [MMV102872] | 0.75 |
| Clc1ccc(-n2cc(COc3ccnc4ccccc34)nn2)cc1 [MMV675994] | 3.3 |
| O=C(C1CCN(c2nnc(-n3cccc3)s2)CC1)N1CCC(Cc2ccccc2)CC1 [MMV676478] | 0.661 |
